# Source: patent US20170260169A1, “INHIBITORS FOR STEROID RESPONSE ELEMENTS AND RNA POLYMERASE II AND RELATED METHODS” (priority 2007, published 2017)
# “Also recorded” adds a separate entry of the source. Read-outs that look alike come from different tables or passages of the source.
# Assays:
# [1] = human, microsomes, 1 h, 1 μM, pH 7.4
# Procedure: (§2) Briefly, each polyamide was incubated with 1 mg/ml human or mouse microsomes at 37° C. The reaction was incubated in 100 mM KH2PO4, 2 mM NADPH, 3 mM MgCl2 at pH 7.4. Samples were also incubated in the absence of NADPH to detect NADPH-free degradation. After 60 min the samples were mixed with an equal volume of ice cold methanol stop solution. The mixture was allowed to sit on ice for at least 10 min and mixed with an equal volume of water. The samples were then centrifuged to remove the precipitates and the samples were analyzed by LC/MS/MS. Data represents % remaining by comparing with time zero concentration. The experiments were performed in duplicate.
# [2] = mouse, microsomes, 1 h, 1 μM, pH 7.4
# Procedure: as §2
# [3] = tested on: LNCaP cells; assay: Cell viability WST-1 assay; format: cell-based; settings: 72 hr incubation; read-out: half maximal inhibitory concentration, viability of LNCaP cells
# Procedure: LNCaP cells were plated in clear bottom 96 well plates at 5,000-7,500 cells per well. The cells were allowed to adhere for 24-36 h before compounds were added in fresh media. Cell viability was determined by the WST-1 assay (Roche) for 77 and 85 after 24 h or 72 h incubation with cells. Cells in cytotoxicity rescue experiments were treated with 85 alone or with 3 μM for 24 h.
# LNCaP cells were plated in clear bottom 96-well plates at 5,000-7,500 cells per well and allowed to adhere for 36-48 h. Compounds were then added in fresh media. Cell metabolic activity was determined by the WST-1 assay (Roche) after 72-h incubation with cells. Quantification was performed on a Perkin Elmer Victor 3 plate reader. Assays were performed in biological triplicates.
# [4] = tested on: p53 target genes; assay: Quantitative RT-PCR of p53 target genes in LNCaP cells; format: cell-based
# Procedure: RNA was extracted using RNEasy columns (Qiagen) according to manufacturer's protocols. cDNA was generated from RNA by reverse transcriptase (Transcriptor First Strand cDNA kit, Roche). Quantitative real-time RT-PCR was performed using SYBR Green PCR Master Mix (Applied Biosystems) on an ABI 7300 instrument. mRNA was measured relative to B glucuronidase as an endogenous control.
# The cells were then treated with 1, 3, and 10 μM of 78 for 72 h. Total cellular RNA was extracted using RNEasy columns (Qiagen) following the manufacturer's protocols. Isolated RNA was reverse transcribed with Transcriptor First Strand cDNA kit (Roche). Quantitative real-time PCR was performed using SYBR Green PCR Master Mix (Applied Biosystems) on an ABI 7300 instrument. Amplification of p21, IGFBP3, and GADD45A cDNA was measured relative to β-glucuronidase using previously published primers (24). Experiments were performed in biological replicates.
# [5] = tested on: LNCaP xenografts; assay: LNCaP xenografts in male NSG mice; format: in vivo; settings: six injections
# Procedure: All mice experiments were conducted under an approved protocol by the Institutional Animal Care and Use Committee of the California Institute of Technology. Male NOD scid gamma (NSG) mice were purchased from The Jackson Laboratory. The animals were individually caged and maintained on a standard light-dark cycle. NSG mice were engrafted with LNCaP cells (2.5 million cells) in a mixture of 1:1 media and matrigel in the left flank. Tumors were grown to ˜100 mm^3 (L×W^2) before beginning treatment with compound or vehicle. Py-Im polyamide 77 was administered once every 3 days in a 5% DMSO:PBS vehicle solution until the experiment endpoint.
# To investigate if polyamide 77 could be detected in peripheral blood after SC injections, 120 nmol of 77 (in 5% DMSO/PBS) was injected into the right flank of four C57BL/6 mice. Blood was collected from anesthetized mice via retroorbital collection at 5 minutes, 4 h, and 12 h after injection, then processed by methods previously described and analyzed by HPLC (35). For measurement of serum PSA (KLK3) and uric acid, blood was collected from anesthetized mice via retroorbital collection at experimental endpoint and serum was separated from blood by centrifugation. Serum PSA (KLK3) was measured by ELISA (R&D systems) according to manufacturer's instructions. Uric acid was measured as described (36).
# Tumors were resected immediately after euthanasia and fixed in neutral buffered formalin. Selected samples were embedded in paraffin, sectioned and stained with hematoxylin and eosin (H&E). Selected sections were assessed by deoxynucleotidyltransferase dUTP nick-end labeling (TUNEL) as described (45).
# Mice experiments were conducted under an approved protocol by the Institutional Animal Care and Use Committee of the California Institute of Technology. Male C57BL6/J mice and male NSG mice were purchased from The Jackson Laboratory. All animals were maintained on a standard light-dark cycle. LNCaP cells (2.5 million cells) were engrafted in a mixture of 1:1 media and matrigel in the left flank of NSG mice. Tumors were allowed grow to ˜200 mm^3 (0.5×L×W^2) before treatment. Py-Im polyamide 78 was administered by SC injection once every 3 d at 1 mg/kg in a 20% (vol/vol) DMSO:Normal saline vehicle solution for 6 injections. Animals were sacrificed two days after the final injection. Animal weight and general health were monitored daily. Fourteen animals were used for each treatment group.
# [6] = Multiple-dose subcutaneous injections, male C57BL/6J mice; format: in vivo; settings: 1 mg/kg SC every 3 days
# Procedure: In addition to single dose injections, the effects of repeated dosing of polyamides 77-80 in mice were examined. In this experiment, 8 week-old male C57BL/6J mice (n=3 per dosing group) were treated with 1 mg/kg of polyamides 77-80 by subcutaneous injection every 3 days, for a cycle of three injections and then sacrificed two days after the final injection (FIG. 31A). As in the single dosing experiments, two mice per group were subjected to histopathology analysis and all blood samples were sent for analysis. […] These mice were promptly euthanized.
# (§1) Serum from treated animals were collected by retroorbital bleeding. […] All samples were sent for analysis at IDEXX-RADIL.
# [7] = tested on: RPB1; assay: RPB1 protein ELISA in LNCaP cells; format: cell-based
# Procedure: […] Cells treated with DMSO vehicle and 1 μM doxorubicin for 24 h were used as control. Cellular RBP1 levels were determined by a RPB1 specific ELISA kit (Cusabio Life Sciences) according to manufacturer's instructions. Total cellular p53 protein level was determined with a pan-p53 ELISA kit (Roche) according to manufacturer's instructions. Assays were performed in biological triplicates.
# [8] = Six-injection regimen of 78 in healthy male C57BL/6J mice, serum chemistry and hematology; format: in vivo; settings: SC 1 mg/kg, six injections
# Procedure: To assess the toxicity of the treatment regimen in healthy animals, male C57BL/6J mice were treated with an identical regimen as the tumor-bearing mice and were sacrificed two days after the final injection. Because the liver and kidney were identified as the target organs of toxicity in our previous study, we assessed relevant serum markers for liver and kidney pathology (FIG. 33D). […] To examine if 78 has an effect on circulating blood counts, whole blood was sampled before treatment and at the time of sacrifice.
# as §1
# [9] = tested on: p53; assay: p53 protein ELISA in LNCaP cells; format: cell-based; settings: polyamide 10 μM 72 hr; doxorubicin 1 μM 24 hr
# Procedure: Cellular levels of RPB1 and p53 protein in LNCaP cells after treatment with 10 μM 3 for 72 h were determined by ELISA. Cells treated with DMSO vehicle and 1 μM doxorubicin for 24 h were used as control. Cellular RBP1 levels were determined by a RPB1 specific ELISA kit (Cusabio Life Sciences) according to manufacturer's instructions. Total cellular p53 protein level was determined with a pan-p53 ELISA kit (Roche) according to manufacturer's instructions. Assays were performed in biological triplicates.
# [10] = Liver microsomal stability, human; settings: 1 μM, Human, 1 hr at 37° C., 1 mg/ml microsomes
# Procedure: as §2
# [11] = Liver microsomal stability, mouse; settings: 1 μM, Mouse, 1 hr at 37° C., 1 mg/ml microsomes
# Procedure: as §2
# [12] = Escalating single dose subcutaneous injections, male C57BL/6J mice (weight, histopathology, serum)
# Procedure: Representative mice (n=2 per dosing group unless otherwise noted) were subjected to histopathology analysis by a veterinary pathologist. Blood from all mice was sampled and sent for analysis of serum markers of target organs. […] These mice were euthanized when significant duress was apparent.
# All animal experiments were conducted under an approved protocol at the California Institute of Technology. Animals were allowed to adjust for 3 days after arrival before treatment. […] Animals were monitored daily for weight loss over 9 days and sacrificed. […] Weight was recorded on days of injection and at the experiment endpoint.
# Sacrificed animals from weight loss experiments were fixed in 10% formalin and sent for histopathology analysis by IDEXX-RADIL. Histopathologic analysis was performed on the cecum, duodenum, heart, ileum, kidney, liver, lung, pancreas, spleen, and stomach. Tissue analysis was performed as a blind study to the identity of the animals.
# Serum from treated animals were collected by retroorbital bleeding. Blood samples were centrifuged at 6,000 rpm for 5 min to collect the serum. Serum ALT, AST, total bilirubin, BUN, and creatinine levels were sent for analysis by IDEXX-RADIL. Serum analysis was performed as a blind study to the identity of the animals.
smiles,measurement,setting,value
CC(=O)CC(c1ccccc1)c1c(O)c2ccccc2oc1=O (stereo not drawn) [Warfarin],Mean remaining parent NADPH-free,[1],100%
same,Mean remaining parent with NADPH,[1],100%
same,Mean remaining parent NADPH-free,[2],100%
same,Mean remaining parent with NADPH,[2],100%
"CC(=O)N[C@H](CCNC(=O)c1cc(NC(=O)c2cc(NC(=O)c3cc(NC(=O)c4nccn4C)cn3C)cn2C)cn1C)C(=O)Nc1cn(C)c(C(=O)Nc2cc(C(=O)Nc3cc(C(=O)Nc4cc(C(=O)NCCCN(C)CCCNC(=O)c5cccc(C(=O)O)c5)n(C)c4)n(C)c3)n(C)c2)n1 [Polyamide 78, ImPyPyPy-2-(R)^AcHNγ-ImPyPyPy-NHMe-IPA]",IC50,[3],2100 nM
same,induction of p53 target genes,[4],induced by 78 in a dose-dependent fashion
same,T/C (tumor weight),[5]; SC 1 mg/kg every three days,52.4%
same,weight loss and distress during xenograft treatment,[5]; SC 1 mg/kg,minimal weight loss and no signs of distress
same,liver and kidney histopathology,[6],no histopathologic lesions consistent with toxicity
same,liver and kidney serum markers,[6],no histopathologic lesions consistent with toxicity or alterations in liver and kidney serum markers
same,weight and physical morbidity,[6]; three injections,no loss in weight or physical morbidities
same,RPB1 levels,[7]; 1 μM for 72 h as printed,reduced RPB1 levels
same,RPB1 protein,"[7]; polyamide 10 μM 72 hr, doxorubicin 1 μM 24 hr",decreases
same,circulating blood counts,[8],No significant hematologic changes
same,serum markers for liver and kidney pathology,[8],"no elevations in AST, ALT, total bilirubin, creatinine, or BUN"
same,cellular level of p53 protein,[9],increases
same,Mean remaining parent NADPH-free,[10],94.9%
same,Mean remaining parent with NADPH,[10],95.3%
same,Mean remaining parent NADPH-free,[11],100%
same,Mean remaining parent with NADPH,[11],97.3%
same,"tolerability, behavior and morbidity after single SC dose","[12]; 1, 3, 10 mg/kg",no change in behavior and appearance
same,overall toxicity / organ damage,"[12]; single SC 1, 3, 10 mg/kg",no detectable toxicity at any dose level tested; also recorded: no detectable animal toxicity at 10 mg/kg
same,serum kidney markers creatinine and BUN,[12]; single SC dose,no elevation of these markers at the dose levels tested
same,"serum liver markers AST, ALT, total bilirubin",[12]; single SC dose,no elevation of these markers at the dose levels tested
